# Legend:
# [1] = test system: R 604 culture (Lactococcus lactis); assay: Yield of Lactococcus lactis fermentation at standard anaerobic high-OD conditions; assay type: cell-based
# Method: To illustrate the effect of adding extra purine containing compounds to an already enriched and optimized media two different types of industrial scale fermentation were compared, one with and one without 0.3% w/w inosine added.
# The present experiment was performed using the commercially available R 604 culture, which is available from Chr. Hansen A/S, Hoersholm, Denmark (catalogue no. 200113).
# The cultures were cultured in a medium having the following composition: Casein hydrolysate (Oxoid, Basingstoke, UK, Product Code L41), 30 g/l; Primatone RL (Quest, Naarden, The Netherlands, Product Code 5X59051), 30 g/l; soya peptone (Oxoid, Basingstoke, UK, Product Code L44), 30 g/l; yeast extract (Oxoid, Basingstoke, UK, Product Code L21), 15 g/l; MgSO4, 1.5 g/l; Na-ascorbate, 3 g/l; and lactose 50 g/l.
# The medium was sterilized by UHT-treatment (143° C. for 8 sec.).
# The fermentation was performed in a 550 L industrial fermentation tank without aeration at 30° C. using 1% (w/w) of the culture mentioned above as inoculum. At high OD conditions the fermentation is essentially anaerobic. The cultures were allowed to acidify to pH 6.0. The pH was subsequently maintained at 6.0 by controlled addition of 13.4 N NH4OH.
# When no further base consumption was detected, the respective culture was cooled down to about 10° C.
# Following cooling, the bacteria in culture media were concentrated 6-18 times by centrifugation and subsequently frozen as pellets in liquid nitrogen at one atmosphere of pressure to produce a so-called frozen Direct Vat Set culture (F-DVS). The F-DVS pellets were stored at −50° C. until further analysis
# The yields of the fermentations were specified in two different ways: • 1) by the obtained biomass measured as the Optical Density at 600 nm (OD600), or • 2) by kg of F-DVS culture pr. 100 L fermentation medium wherein the F-DVS culture have an “acidification activity” of 4.8-5.1 according to the Pearce test described in Example 2: Analytical Procedure QAm-043.
# [2] = test system: L. lactis subsp. lactis CHCC2862; assay: Proteomics (2D protein gels) for detection of exogenous purines in the medium; assay type: cell-based, Lactococcus lactis subsp. lactis; settings: 0.2% inosine, SA medium with 1% glucose
# Method: To set up a specific method for detection of the presence/absence of exogenous purines in the medium we inoculated L. lactis subsp. lactis CHCC2862 into defined SA medium with 1% glucose. This medium is devoid of nucleo compounds (Jensen & Hammer 1993). Cultures were set up at 30° C. with and without 0.2% inosine and incubated overnight. Exponentially growing cells were then inoculated into fresh medium at an OD600 of around 0.1. At OD 0.8 (exponential growth) and in stationary phase cells were harvested and 2D protein gels were produced.
# In general around 3-400 protein spots were detectable on the gels with the pH range 4-7. For OD 0.8 there were less than 10 spots that were present from the culture without inosine, but absent (or very weak) from the culture with inosine. […] Four of the strongest spots present only on the gel produced from the culture without purines were subjected to in-gel digestion and mass spectrometry identification. The proteins were identified as: purH (bifunctional purine biosynthesis protein), purM (phosphoribosylaminoimidazole synthase), yphF (phosphoribosylformylglycinamidine synthase PurS), and fhs (formyltetrahydrofolate synthetase). […]
# Identification of proteins. The identity of proteins in chosen spots was determined by in-gel digestion and analysis of peptide profile and amino acid content using mass spectrometry. […]
# [3] = test system: Streptococcus thermophilus culture CHQ-18; assay: Yield of Streptococcus thermophilus fermentation at standard anaerobic high-OD conditions; assay type: cell-based; settings: 0.2% w/w added, 3 L tank, 40° C., pH 6.0
# Method: 0.2% w/w inosine is approximately 7 mM inosine.
# This experiment was performed to investigate the effect of adding extra purine containing compounds to an already enriched and optimized media to be used for anaerobic fermentation at high OD-conditions.
# The present experiment was performed using the commercially available Streptococcus thermophilus culture CHQ-18, which is available from Chr. Hansen A/S, Hoersholm, Denmark.
# The cultures were cultured in a rich medium based on complex medium components, BioSpringer yeast extract 207, Arla skim milk powder (Milex 240), and lactose.
# The fermentation was performed in a 3 L agitated fermentation tank at 40° C. using 0.1% (w/w) of the culture mentioned above as inoculum. The pH was maintained at 6.0 by addition of 13.4 N NH4OH. Anaerobic conditions were ensured by flushing with nitrogen in head space (1.5 l/min). Agitation was 300 rpm.
# The yields of the fermentations were specified by the obtained biomass measured as the Optical Density at 600 nm (OD600) of unconcentrated samples sampled during the fermentation.
# [4] = 0.3% w/w inosine, 550 L tank without aeration, 30° C., pH 6.0
structure (smiles),measurement,setting,value
OC[C@H]1O[C@@H](n2cnc3c(O)ncnc32)[C@H](O)[C@@H]1O [inosine],Effect of enhancing agent on yield,[1]; 0.3% w/w inosine added to the anaerobic culture medium before the start of the fermentation,did not result in increased yields
same,Yield according to Pearce,[1]; [4],4.98
same,Yield as OD600,[1]; [4],25.2
same,"Protein spots present from the culture without inosine, but absent (or very weak) from the culture with inosine","[2]; 30° C., OD 0.8 (exponential growth), gels pH 4-7",less than 10 spots
same,Absence/presence pattern of purine de novo synthesis protein spots,[2]; cells in stationary phase,a similar absence/presence pattern was obtained
same,"Effect of enhancing agent on yield (biomass as OD600, FIG. 1)",[3],did not result in increased yields
